Test results published in ChEMBL document CHEMBL4229379, “Synthesis and structure-activity relationship of novel bisindole amidines active against MDR Gram-positive and Gram-negative bacteria” (Eur J Med Chem, 2018).
In brackets after ≈: the same amount, converted by molar mass.

Legend:
[1] = Cytotoxicity against HEK293T cells assessed as reduction in cell viability after 48 hrs by MTS assay; type: cell-based, HEK-293T; settings: human
[2] = test system: Stenotrophomonas maltophilia; test: Antibacterial activity against Stenotrophomonas maltophilia ATCC 13636 after 18 hrs by CLSI broth microdilution method; type: functional; settings: ATCC 13636, 18 h
[3] = test system: Pseudomonas aeruginosa; test: Antibacterial activity against Pseudomonas aeruginosa ATCC 27853 after 18 hrs by CLSI broth microdilution method; type: functional; settings: ATCC 27853, 18 h
[4] = test system: Klebsiella pneumoniae; test: Antibacterial activity against extended-spectrum beta-lactamase harboring Klebsiella pneumoniae ATCC 700603 after 18 hrs by CLSI broth microdilution method; type: functional; settings: Klebsiella pneumoniae, 700603, 18 h
[5] = test system: Staphylococcus epidermidis; test: Antibacterial activity against methicillin-sensitive Staphylococcus epidermidis ATCC 12228 after 18 hrs by CLSI broth microdilution method; type: functional; settings: ATCC 12228, 18 h
[6] = test system: Enterococcus faecalis; test: Antibacterial activity against vancomycin-sensitive Enterococcus faecalis 12-5 after 18 hrs by CLSI broth microdilution method; type: functional; settings: 12-5, 18 h
[7] = test system: Klebsiella pneumoniae; test: Antibacterial activity against extended-spectrum beta-lactamase deficient Klebsiella pneumoniae 12-4 after 18 hrs by CLSI broth microdilution method; type: functional; settings: 12-4, 18 h
[8] = test system: Escherichia coli; test: Antibacterial activity against extended-spectrum beta-lactamase harboring Escherichia coli 12-15 after 18 hrs by CLSI broth microdilution method; type: functional; settings: 12-15, 18 h
[9] = test system: Enterococcus faecalis; test: Antibacterial activity against vancomycin-sensitive Enterococcus faecalis ATCC 29212 after 18 hrs by CLSI broth microdilution method; type: functional; settings: ATCC 29212, 18 h
[10] = test system: Klebsiella aerogenes; test: Antibacterial activity against Enterobacter aerogenes ATCC 13048 after 18 hrs by CLSI broth microdilution method; type: functional; settings: ATCC 13048, 18 h
[11] = test system: Klebsiella pneumoniae; test: Antibacterial activity against extended-spectrum beta-lactamase deficient Klebsiella pneumoniae 7 after 18 hrs by CLSI broth microdilution method; type: functional; settings: Klebsiella pneumoniae, 7, 18 h
[12] = test system: Enterococcus faecalis; test: Antibacterial activity against vancomycin-resistant Enterococcus faecalis ATCC 51299 after 18 hrs by CLSI broth microdilution method; type: functional; settings: ATCC 51299, 18 h
[13] = test system: Staphylococcus aureus; test: Antibacterial activity against methicillin-sensitive Staphylococcus aureus ATCC 29213 after 18 hrs by CLSI broth microdilution method; type: functional; settings: ATCC 29213, 18 h
[14] = test system: Serratia marcescens; test: Antibacterial activity against Serratia marcescens ATCC 21074 after 18 hrs by CLSI broth microdilution method; type: functional; settings: ATCC 21074, 18 h
[15] = test system: Enterococcus faecalis; test: Antibacterial activity against vancomycin-resistant Enterococcus faecalis 09-9 after 18 hrs by CLSI broth microdilution method; type: functional; settings: 09-9, 18 h
[16] = test system: Escherichia coli; test: Antibacterial activity against extended-spectrum beta-lactamase deficient Escherichia coli 12-14 after 18 hrs by CLSI broth microdilution method; type: functional; settings: 12-14, 18 h
[17] = test system: Pseudomonas aeruginosa; test: Antibacterial activity against Pseudomonas aeruginosa 12-16 after 18 hrs by CLSI broth microdilution method; type: functional; settings: 12-16, 18 h
[18] = test system: Staphylococcus aureus; test: Antibacterial activity against methicillin-resistant Staphylococcus aureus ATCC 33591 after 18 hrs by CLSI broth microdilution method; type: functional; settings: ATCC 33591, 18 h
[19] = test system: Proteus mirabilis; test: Antibacterial activity against Proteus mirabilis 12-6 after 18 hrs by CLSI broth microdilution method; type: functional; settings: 12-6, 18 h
[20] = test system: Klebsiella pneumoniae; test: Antibacterial activity against new delhi metallo-beta-lactamase-1 harboring Klebsiella pneumoniae ATCC BAA-2146 after 18 hrs by CLSI broth microdilution method; type: functional; settings: ATCC BAA-2146, 18 h
[21] = test system: Enterococcus faecium; test: Antibacterial activity against vancomycin-resistant Enterococcus faecium ATCC 700221 after 18 hrs by CLSI broth microdilution method; type: functional; settings: ATCC 700221, 18 h
[22] = test system: Citrobacter freundii; test: Antibacterial activity against Citrobacter freundii ATCC 43864 after 18 hrs by CLSI broth microdilution method; type: functional; settings: ATCC 43864, 18 h
[23] = test system: Escherichia coli; test: Antibacterial activity against extended-spectrum beta-lactamase deficient Escherichia coli 1515 after 18 hrs by CLSI broth microdilution method; type: functional; settings: Escherichia coli, 1515, 18 h
[24] = test system: Staphylococcus epidermidis; test: Antibacterial activity against methicillin-sensitive Staphylococcus epidermidis 12-6 after 18 hrs by CLSI broth microdilution method; type: functional; settings: 12-6, 18 h
[25] = test system: Staphylococcus aureus; test: Antibacterial activity against methicillin-sensitive Staphylococcus aureus 12-28 after 18 hrs by CLSI broth microdilution method; type: functional; settings: 12-28, 18 h
[26] = test system: Enterobacter cloacae; test: Antibacterial activity against Enterobacter cloacae ATCC 43560 after 18 hrs by CLSI broth microdilution method; type: functional; settings: ATCC 43560, 18 h
[27] = test system: Providencia rettgeri; test: Antibacterial activity against Providencia rettgeri ATCC 31052 after 18 hrs by CLSI broth microdilution method; type: functional; settings: ATCC 31052, 18 h
[28] = test system: Staphylococcus aureus; test: Antibacterial activity against methicillin-sensitive Staphylococcus aureus 15 after 18 hrs by CLSI broth microdilution method; type: functional; settings: Staphylococcus aureus, 15, 18 h
[29] = test system: Staphylococcus epidermidis; test: Antibacterial activity against methicillin-resistant Staphylococcus epidermidis 12-8 after 18 hrs by CLSI broth microdilution method; type: functional; settings: 12-8, 18 h
[30] = test system: Staphylococcus aureus; test: Antibacterial activity against methicillin-resistant Staphylococcus aureus 12-33 after 18 hrs by CLSI broth microdilution method; type: functional; settings: 12-33, 18 h
[31] = test system: Klebsiella pneumoniae; test: Antibacterial activity against extended-spectrum beta-lactamase harboring Klebsiella pneumoniae 12-8 after 18 hrs by CLSI broth microdilution method; type: functional; settings: 12-8, 18 h
[32] = test system: Enterococcus faecium; test: Antibacterial activity against vancomycin-resistant Enterococcus faecium 12-1 after 18 hrs by CLSI broth microdilution method; type: functional; settings: 12-1, 18 h
[33] = test system: Proteus vulgaris; test: Antibacterial activity against Proteus vulgaris ATCC 29905 after 18 hrs by CLSI broth microdilution method; type: functional; settings: ATCC 29905, 18 h
[34] = test system: Enterococcus faecium; test: Antibacterial activity against vancomycin-sensitive Enterococcus faecium 12-3 after 18 hrs by CLSI broth microdilution method; type: functional; settings: 12-3, 18 h
[35] = test system: Pseudomonas aeruginosa; test: Antibacterial activity against Pseudomonas aeruginosa PAO1 after 18 hrs by CLSI broth microdilution method; type: functional; settings: PAO1, 18 h
[36] = test system: Escherichia coli; test: Antibacterial activity against extended-spectrum beta-lactamase deficient Escherichia coli ATCC 25922 after 18 hrs by CLSI broth microdilution method; type: functional; settings: ATCC 25922, 18 h
[37] = test system: Acinetobacter calcoaceticus; test: Antibacterial activity against Acinetobacter calcoaceticus ATCC 19606 after 18 hrs by CLSI broth microdilution method; type: functional; settings: ATCC 19606, 18 h

CN(C)C(=N)c1ccc2cc(-c3cncc(-c4cc5ccc(C(=N)N(C)C)cc5[nH]4)c3)[nH]c2c1
CC50 at 48 h [1]: 1.75 µg/mL (≈ 3.89 µM) | MIC [2]: 8 µg/mL (≈ 17.8 µM) | MIC [3]: 16 µg/mL (≈ 35.6 µM) | MIC [4]: 8 µg/mL (≈ 17.8 µM) | MIC [5]: 0.25 µg/mL (≈ 0.556 µM) | MIC [6]: 2 µg/mL (≈ 4.45 µM) | MIC [7]: 8 µg/mL (≈ 17.8 µM) | MIC [8]: 1 µg/mL (≈ 2.22 µM) | MIC [9]: 2 µg/mL (≈ 4.45 µM) | MIC [10]: 4 µg/mL (≈ 8.9 µM) | MIC [11]: 4 µg/mL (≈ 8.9 µM) | MIC [12]: 2 µg/mL (≈ 4.45 µM) | MIC [13]: 0.5 µg/mL (≈ 1.11 µM) | MIC [14]: 16 µg/mL (≈ 35.6 µM) | MIC [15]: 2 µg/mL (≈ 4.45 µM) | MIC [16]: 1 µg/mL (≈ 2.22 µM) | MIC [17]: > 64 µg/mL | MIC [18]: 0.5 µg/mL (≈ 1.11 µM) | MIC [19]: 8 µg/mL (≈ 17.8 µM) | MIC [20]: 4 µg/mL (≈ 8.9 µM) | MIC [21]: 2 µg/mL (≈ 4.45 µM) | MIC [22]: 8 µg/mL (≈ 17.8 µM) | MIC [23]: 2 µg/mL (≈ 4.45 µM) | MIC [24]: 0.25 µg/mL (≈ 0.556 µM) | MIC [25]: 0.5 µg/mL (≈ 1.11 µM) | MIC [26]: 4 µg/mL (≈ 8.9 µM) | MIC [27]: 2 µg/mL (≈ 4.45 µM) | MIC [28]: 0.5 µg/mL (≈ 1.11 µM) | MIC [29]: 0.5 µg/mL (≈ 1.11 µM) | MIC [30]: 0.5 µg/mL (≈ 1.11 µM) | MIC [31]: 4 µg/mL (≈ 8.9 µM) | MIC [32]: 1 µg/mL (≈ 2.22 µM) | MIC [33]: 4 µg/mL (≈ 8.9 µM) | MIC [34]: 2 µg/mL (≈ 4.45 µM) | MIC [35]: > 64 µg/mL | MIC [36]: 2 µg/mL (≈ 4.45 µM) | MIC [37]: 8 µg/mL (≈ 17.8 µM)

CN(C)C(=N)c1ccc2cc(-c3ccc(-c4cc5ccc(C(=N)N(C)C)cc5[nH]4)nc3)[nH]c2c1
CC50 at 48 h [1]: 11.7 µg/mL (≈ 26 µM) | MIC [2]: 128 µg/mL (≈ 285 µM) | MIC [3]: 64 µg/mL (≈ 142 µM) | MIC [4]: > 128 µg/mL | MIC [5]: 0.5 µg/mL (≈ 1.11 µM) | MIC [6]: 4 µg/mL (≈ 8.9 µM) | MIC [7]: 32 µg/mL (≈ 71.2 µM) | MIC [8]: 4 µg/mL (≈ 8.9 µM) | MIC [9]: 4 µg/mL (≈ 8.9 µM) | MIC [10]: 16 µg/mL (≈ 35.6 µM) | MIC [11]: 16 µg/mL (≈ 35.6 µM) | MIC [12]: 4 µg/mL (≈ 8.9 µM) | MIC [13]: 1 µg/mL (≈ 2.22 µM) | MIC [14]: > 128 µg/mL | MIC [15]: 4 µg/mL (≈ 8.9 µM) | MIC [16]: 4 µg/mL (≈ 8.9 µM) | MIC [17]: > 128 µg/mL | MIC [18]: 1 µg/mL (≈ 2.22 µM) | MIC [19]: > 128 µg/mL | MIC [20]: 32 µg/mL (≈ 71.2 µM) | MIC [21]: 4 µg/mL (≈ 8.9 µM) | MIC [22]: 16 µg/mL (≈ 35.6 µM) | MIC [23]: 4 µg/mL (≈ 8.9 µM) | MIC [24]: 2 µg/mL (≈ 4.45 µM) | MIC [25]: 1 µg/mL (≈ 2.22 µM) | MIC [26]: 8 µg/mL (≈ 17.8 µM) | MIC [27]: 16 µg/mL (≈ 35.6 µM) | MIC [28]: 1 µg/mL (≈ 2.22 µM) | MIC [29]: 1 µg/mL (≈ 2.22 µM) | MIC [30]: 2 µg/mL (≈ 4.45 µM) | MIC [31]: 32 µg/mL (≈ 71.2 µM) | MIC [32]: 2 µg/mL (≈ 4.45 µM) | MIC [33]: 16 µg/mL (≈ 35.6 µM) | MIC [34]: 4 µg/mL (≈ 8.9 µM) | MIC [35]: > 128 µg/mL | MIC [36]: 4 µg/mL (≈ 8.9 µM) | MIC [37]: > 128 µg/mL

COCCNC(=N)c1ccc2cc(-c3cncc(-c4cc5ccc(C(=N)NCCOC)cc5[nH]4)c3)[nH]c2c1
CC50 at 48 h [1]: 28 µg/mL (≈ 54.9 µM) | MIC [2]: > 64 µg/mL | MIC [3]: > 64 µg/mL | MIC [4]: > 64 µg/mL | MIC [5]: 64 µg/mL (≈ 126 µM) | MIC [6]: > 64 µg/mL | MIC [7]: > 64 µg/mL | MIC [8]: > 64 µg/mL | MIC [9]: > 64 µg/mL | MIC [10]: > 64 µg/mL | MIC [11]: > 64 µg/mL | MIC [12]: > 64 µg/mL | MIC [13]: > 64 µg/mL | MIC [14]: > 64 µg/mL | MIC [15]: > 64 µg/mL | MIC [16]: > 64 µg/mL | MIC [17]: > 64 µg/mL | MIC [18]: > 64 µg/mL | MIC [19]: > 64 µg/mL | MIC [20]: > 64 µg/mL | MIC [21]: > 64 µg/mL | MIC [22]: > 64 µg/mL | MIC [23]: > 64 µg/mL | MIC [24]: 64 µg/mL (≈ 126 µM) | MIC [25]: > 64 µg/mL | MIC [26]: > 64 µg/mL | MIC [27]: > 64 µg/mL | MIC [28]: > 64 µg/mL | MIC [29]: > 64 µg/mL | MIC [30]: > 64 µg/mL | MIC [31]: > 64 µg/mL | MIC [32]: > 64 µg/mL | MIC [33]: > 64 µg/mL | MIC [34]: > 64 µg/mL | MIC [35]: > 64 µg/mL | MIC [36]: > 64 µg/mL | MIC [37]: > 64 µg/mL
